Data from patent publication US20240010642A1, “MODULATORS OF PROGRAMMED DEATH-LIGAND-1” (SOUTHERN RESEARCH INSTITUTE, priority 2021, published 2024).
Square brackets hold non-standard residues; d marks the D form. Peptide text beside a SMILES is read from it. * marks the point of attachment. Api = NC1(C(=O)O)CCNCC1; PhAc = O=C(Cc1ccccc1)*; Ac3c = NC1(C(=O)O)CC1; Aib = CC(C)(N)C(=O)O

biological target: PDL-1 (Homo sapiens (Human), UniProt Q9NZQ7); experiment: KD binding (Table 1)
Sequence (Q9NZQ7 19-290): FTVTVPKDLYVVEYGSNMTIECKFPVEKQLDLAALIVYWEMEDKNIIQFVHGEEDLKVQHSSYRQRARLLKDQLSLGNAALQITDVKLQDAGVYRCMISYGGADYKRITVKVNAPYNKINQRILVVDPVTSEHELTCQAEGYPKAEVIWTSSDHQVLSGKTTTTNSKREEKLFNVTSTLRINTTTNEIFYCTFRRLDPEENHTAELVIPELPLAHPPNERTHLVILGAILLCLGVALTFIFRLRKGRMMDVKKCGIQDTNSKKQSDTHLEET

| KD | SMILES |
| --- | --- |
| No Binding | CC(C)(NC(=O)c1cc(CN)cc(NC(=O)Cc2ccccc2)c1)C(N)=O [Compound No. 1, 2-[[3-(Aminomethyl)-5-(2-phenylacetamido)phenyl]formamido]-2-methylpropanamide] |
| No Binding | NCc1cc(NC(=O)Cc2ccccc2)cc(C(=O)NC2(C(N)=O)CCCC2)c1 [compound 7] |
| No Binding | CC(C)(NC(=O)c1cc(NC(=O)Cc2ccc(F)cc2)cc(CN)c1F)C(N)=O [compound 16] |
| No Binding | CNC(=O)C(C)(C)NC(=O)c1cc(CN(C)C)cc(NC(=O)Cc2ccc(F)cc2)c1 [compound 18] |

system: PDL-1 signaling; experiment: Luciferase assay (Table 1); type: cell-based

| SMILES | EC50 [µM] |
| --- | --- |
| CC(C)(NC(=O)C1(NC(=O)Cc2ccccc2)CCNCC1)C(N)=O [Compound No. 22, 2-methyl-2-[[4-(2-phenylacetamido)piperidin-4-yl]formamido]propanamide] (PhAc-[Api]-[Aib]-NH2) | 4.22 |
| NCc1cc(NC(=O)Cc2ccccc2)cc(C(=O)NC2(C(N)=O)CC2)c1 [compound 3] | 12.6 |
| NCc1cc(NC(=O)Cc2ccccc2)cc(C(=O)NC2(C(N)=O)CCC2)c1 [compound 6] | 27.1 |
| NCc1cc(NC(=O)Cc2ccccc2)cc(C(=O)NC2(C(N)=O)CCCC2)c1 [compound 7] | 26.1 |
| CC(C)(NC(=O)c1cc(NC(=O)Cc2ccccc2)ccc1CN)C(N)=O [compound 11] | 20 |
| CC(C)(NC(=O)c1cc(NC(=O)Cc2ccc(F)cc2)ccc1CN)C(N)=O [compound 12] | 14.3 |
| CC(C)(NC(=O)c1ccc(CN)c(NC(=O)Cc2ccccc2)c1)C(N)=O [compound 14] | 1.19 |
| CC(C)(NC(=O)c1cc(NC(=O)Cc2ccccc2)cc(CN)c1F)C(N)=O [compound 15] | 19.3 |
| CC(C)(NC(=O)C1(NC(=O)Cc2ccc(F)cc2)CCNCC1)C(N)=O [compound 23] | 9.02 |
| NC(=O)C1(NC(=O)C2(NC(=O)Cc3ccccc3)CCNCC2)CC1 [compound 24] (PhAc-[Api]-[Ac3c]-NH2) | 7.73 |
| NC(=O)C1(NC(=O)C2(NC(=O)Cc3ccc(F)cc3)CCNCC2)CC1 [compound 25] | 0.36 |

More lines, now with the values ahead:

| EC50 [µM] | SMILES |
| --- | --- |
| 0.39 | CC(C)(NC(=O)c1cc(CN)cc(NC(=O)Cc2ccccc2)c1)C(N)=O [Compound No. 1, 2-[[3-(Aminomethyl)-5-(2-phenylacetamido)phenyl]formamido]-2-methylpropanamide] |
| 0.93 | CC(C)(NC(=O)c1cc(CN)cc(NC(=O)Cc2ccc(F)cc2)c1)C(N)=O [Compound No. 2] |
| 15.7 | NCc1cc(NC(=O)Cc2ccc(F)cc2)cc(C(=O)NC2(C(N)=O)CC2)c1 [compound 4] |
| 0.07 | NCc1cc(NC(=O)Cc2ccc(F)cc2)cc(C(=O)NCC(N)=O)c1 [compound 9] |
| 7.06 | NCc1cc(NC(=O)Cc2ccc(F)cc2)cc(C(=O)NC2(C(N)=O)CCC2)c1 [compound 10] |
| 20.4 | CC(C)(NC(=O)c1ccc(CN)c(NC(=O)Cc2ccc(F)cc2)c1)C(N)=O [compound 13] |
| 20.6 | CC(C)(NC(=O)c1cc(NC(=O)Cc2ccc(F)cc2)cc(CN)c1F)C(N)=O [compound 16] |
| 0.21 | CN(C)Cc1cc(NC(=O)Cc2ccc(F)cc2)cc(C(=O)NC(C)(C)C(N)=O)c1 [compound 17] |
| 21 | CNC(=O)C(C)(C)NC(=O)c1cc(CN(C)C)cc(NC(=O)Cc2ccc(F)cc2)c1 [compound 18] |
| 20.7 | CNC(=O)C(C)(C)NC(=O)c1cc(CN)cc(NC(=O)Cc2ccc(F)cc2)c1 [compound 19] |
